From patent publication US10766888B1, “HMOX1 inducers” (Mitobridge Inc., priority 2019, dated 2020)
Counter-ions that a name gives are not always drawn. Like-named read-outs stand apart in the source and are kept apart here.

Tests used:
FTH1 = FTH1 mRNA expression in HepG2 cells (Nanostring); type: cell-based, human; details: 24 hours treatment
Experimental: RNA Isolation and Quantification of Gene Expression
HepG2 cells were seeded at 250 k/well in 12-well tissue culture plates coated with collagen (collagen I, rat tail (thin plate coating); ENZO Life Sciences) for approximately 24 hours. The seeded cells were then treated with dose titration of the compound of Example 17 or dimethyl fumarate (DMF) (a Nrf2 activator; Fisher Scientific) via media change, with biological triplicates performed for each treatment. After approximately 24 hours of treatment, cells were visually inspected to confirm that no toxicity occurred with compound treatment. The treated cells were washed with PBS, aspirated, parafilmed and frozen at −80° C. prior to RNA isolation. RNA was isolated using Machery-Nagel isolation kit (NucleoSpin® RNA: catalog 740955.250) and then quantitated using ThermoFisher Nanodrop.
RNA was diluted for Nanostring gene expression analysis. The diluted RNA at an input of 200 ng RNA was run on a Nanostring instrument, which was supported with nCounter® SPRINT Profiler System and nSolver4.0 Software, nCounter® SPRINT Cartridge, nCounter® SPRINT Reagent Pack, and nCounter® SPRINT Hybridization Buffer. Analysis was done manually using raw data obtained from nSolver4.0 Software. CLTC, POLR2A, RPL27 and TBP were used as reference genes for normalization. Data was graphed as fold change compared to DMSO treatment. […]

[1] = test system: Human Heme Oxygenase-1 (HMOX-1); test: ELISA assay to measure human heme oxygenase-1 (HMOX-1) in HepG2 lysate; type: cell-based
Procedure, shortened: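 Treated HepG2 cells were lysed in PBS with 0.5% Triton X100, 1 mM EDTA and protease inhibitors, and lysates were diluted 1:20. HO-1 was measured by sandwich ELISA (biotinylated detection antibody, streptavidin-HRP, chemiluminescence) at room temperature against a standard curve from 20 ng/ml. EC50 and fold change were expressed relative to DMSO control.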

hERG channel = hERG channel (Homo sapiens, UniProt Q12809); test: hERG manual patch clamp assay; type: cell-based; details: HEK 293 cells stably expressing hERG channel, pH 7.35, 10 μM compound
Sequence of hERG channel (Q12809 whole entry): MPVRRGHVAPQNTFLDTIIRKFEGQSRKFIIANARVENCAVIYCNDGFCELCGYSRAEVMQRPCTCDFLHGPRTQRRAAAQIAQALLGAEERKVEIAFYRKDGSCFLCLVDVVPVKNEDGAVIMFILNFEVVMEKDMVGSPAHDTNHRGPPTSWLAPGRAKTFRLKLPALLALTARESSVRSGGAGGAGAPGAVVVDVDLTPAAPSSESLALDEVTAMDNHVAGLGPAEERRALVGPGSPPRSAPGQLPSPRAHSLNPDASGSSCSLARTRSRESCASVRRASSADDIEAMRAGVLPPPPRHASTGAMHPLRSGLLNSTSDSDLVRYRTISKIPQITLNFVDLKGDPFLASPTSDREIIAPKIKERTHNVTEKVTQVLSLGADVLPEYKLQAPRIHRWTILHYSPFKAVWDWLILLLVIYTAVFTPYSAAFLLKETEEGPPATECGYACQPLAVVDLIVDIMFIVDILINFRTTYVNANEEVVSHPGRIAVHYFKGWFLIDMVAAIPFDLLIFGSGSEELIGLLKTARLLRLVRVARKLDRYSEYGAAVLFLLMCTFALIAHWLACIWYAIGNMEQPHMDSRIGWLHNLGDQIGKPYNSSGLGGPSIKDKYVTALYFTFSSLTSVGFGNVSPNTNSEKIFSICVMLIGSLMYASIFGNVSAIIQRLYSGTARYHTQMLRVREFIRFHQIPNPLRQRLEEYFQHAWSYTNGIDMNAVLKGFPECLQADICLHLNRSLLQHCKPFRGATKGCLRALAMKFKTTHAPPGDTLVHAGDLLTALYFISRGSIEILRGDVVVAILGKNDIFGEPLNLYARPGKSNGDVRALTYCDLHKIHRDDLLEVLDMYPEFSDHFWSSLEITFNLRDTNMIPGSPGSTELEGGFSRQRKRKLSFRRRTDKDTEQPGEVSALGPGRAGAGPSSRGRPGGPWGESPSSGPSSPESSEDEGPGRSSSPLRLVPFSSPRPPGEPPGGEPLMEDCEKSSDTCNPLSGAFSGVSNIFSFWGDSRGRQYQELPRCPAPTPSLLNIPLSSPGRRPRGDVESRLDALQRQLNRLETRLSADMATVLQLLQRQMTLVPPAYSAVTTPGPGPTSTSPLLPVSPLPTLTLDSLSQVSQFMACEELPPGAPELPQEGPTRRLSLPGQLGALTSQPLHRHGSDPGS
Experimental: Cell Lines and Cell Culture
HEK 293 cell line stably expressing hERG channel (Cat # K1236) was purchased from Invitrogen. The cells were cultured in 85% DMEM, 10% dialyzed FBS, 0.1 mM NEAA, 25 mM HEPES, 100 U/mL Penicillin-Streptomycin and 5 μg/mL Blasticidin and 400 μg/mL Geneticin. Cells were split using TrypLE™ Express about three times a week, and maintained between ˜40% to ˜80% confluence. Before the assay, the cells were transferred onto the coverslips at 5×10^5 cells/per 6 cm cell culture dish and induced with doxycycline at 1 μg/mL for 48 hours.
• 1) External solution (in mM): 132 NaCl, 4 KCl, 3 CaCl2, 0.5 MgCl2, 11.1 glucose, and 10 HEPES (pH adjusted to 7.35 with NaOH) • 2) Internal solution (in mM): 140 KCl, 2 MgCl2, 10 EGTA, 10 HEPES and 5 MgATP (pH adjusted to 7.35 with KOH) • 3) hERG currents were tested in presence of 10 μM compound concentration with final concentration of DMSO of 0.1%. Experimental Procedure • 1) Removed the coverslip from the cell culture dish and placed it on the microscope stage in bath chamber. • 2) Located a desirable cell using the 10× objective. Located the tip of the electrode under the microscope using the 10× objective by focusing above the plane of the cells. Once the tip was in focus, advanced the electrode downwards towards the cell using the coarse controls of the manipulator, while simultaneously moving the objective to keep the tip in focus. • 3) When directly over the cell, switched to the 40× objective and used the fine controls of the manipulator to approach the surface of the cell in small steps. • 4) Applied gentle suction through the side-port of the electrode holder to form a gigaohm seal. • 5) Used the Cfast to remove the capacity current that was in coincidence with the voltage step. Obtained the whole cell configuration by applying repetitive, brief, strong suction until the membrane patch ruptured. • 6) Set membrane potential to −60 mV at this point to ensure that hERG channels were not • open. The spikes of capacity current should then be cancelled using the Cslow on the amplifier. 7) Set holding potential to −90 mV for 500 ms; recorded current at 50 kHz and filtered at 10 kHz. Leaking current was tested at −80 mV for 500 ms. • 8) The hERG current was elicited by depolarizing at +30 mV for 4.8 seconds and then the voltage was taken back to −50 mV for 5.2 seconds to remove the inactivation and observe the deactivating tail current. The maximum amount of tail current size was used to determine hERG current amplitude. • 9) Recorded current for 120 seconds to assess the current stability. Only stable cells with recording parameters above threshold were applied for the compound administrations. • 10) Firstly vehicle control was applied to the cells to establish the baseline. […] In order to ensure the good performance of cultured cells and operations, the positive control, Dofetilide, with 5 dose concentration was also used to test the same batch of cells. Data Analysis
The following criteria were used to determine data acceptability. • 1) Initial seal resistance >1 GΩ; • 2) Leak currents <50% of the control peak tail currents at any time; • 3) The peak tail amplitude >250 pA; • 4) Membrane resistance Rm>500 MΩ; • 5) Access resistance (Ra)<10 MΩ; • 6) Apparent run-down of peak current <2.5% per min.
Data that met the above criteria for hERG current quality were further analyzed as the following steps. • 1) Percent hERG current inhibition was calculated using the following equation. • Note: PatchMaster or Clampfit software was used to extract the peak current from the original data.
[formula] • 2) The dose response curve of test compounds was plotted with percentage of hERG current inhibition against the concentration of test compounds using Graphpad Prism 6.0, and fit to a sigmoid dose-response curve with a variable slope.

[2] = PD study: compound concentration in mouse liver; type: in vivo, C57BL/6 mice; details: male, C57BL/6, mouse, 50 mg/kg, 50 mpk oral
Experimental: 9-10 week old male C57BL/6 mice were dosed orally with 50 mg/kg of vehicle or compound formulated in 5% w/v tween 80 and 0.5% methyl cellulose. At indicated time points (3 and 6 hours or or 4 and 8 hours post-dosing as shown in the results below), whole blood was collected, animal was sacrificed and liver was collected. Blood samples were transferred to vials containing 4 μL of 10% w/v EDTA, centrifuged at 6000 rpm for 8 in below 10° C. to obtain plasma. Samples were frozen and later processed for HMOX1 protein levels as indicated below: […]

[3] = PK study: plasma and brain levels in mice; type: in vivo, C57BL/6 mice; details: mouse, plasma, measured in a previous study

Row | EC50 ([1]; HepG2, human HMOX1, as listed in Table 5, read-out: HMOX1 EC50 h) [µM] | EC50 ([1]; human HMOX1 protein level in HepG2 lysate, * = average of 2 or more EC50 determinations, NA = Not Active, read-out: EC50) [µM] | concentration at 3 h ([2]; 3 h, read-out: Liver Conc uM (3 h)) [µM] | concentration at 6 h ([2]; 6 h, read-out: Liver Conc uM (6 h)) [µM] | concentration at 1 h ([3]; 1 hr) [ng/mL] | concentration at 4 h ([3]; 4 hr) [ng/mL] | Compound | FTH1 expression fold increase (in words) (FTH1) | inhibition at 10 µM (hERG channel) [%]
1 |  |  |  |  |  |  | COC(=O)/C=C/C(=O)OC [DMF, dimethyl fumarate, reference compound] | comparable fold increases | 
2 | 0.9 | 0.9 | 12.2 | 1.3 | 2070 ± 318 | 288 ± 124 | Cn1c(Nc2nc3ccc(OC(F)(F)F)cc3s2)nc2cc(C(=O)NCCOCCO)ccc21 [Comparator 1, 1-methyl-2-(6-trifluoromethoxy-benzothiazol-2-ylamino)-1H-benzoimidazole-5-carboxylic acid [2-(2-hydroxy-ethoxy)-ethyl]-amide, reference compound] |  | 66
